For 12 compounds, T/C results are on record in PubChem BioAssay AID220 (DTP/NCI, 2004).

The subject of this experiment is CD8F1 mice, subcutaneous mammary adenocarcinoma, T/C%. In words: NCI In Vivo Anticancer Drug Screen. Data for tumor model Mammary Adenocarcinoma CD8F1 (subcutaneous) in CD8F1. The note with it: higher = larger tumour. Summed up:
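Ratio of treated to vehicle-control outcome, based on either survival or tumor size, in mice bearing transplantable tumors given the test compound.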

Where [1] appears, read: endpoint: median tumor weight (est.), dose: 12.5 mg/kg/injection, schedule: Q07DX005 (ip), vehicle: saline with Tween-80.
Where [2] appears, read: endpoint: median tumor weight (est.), dose: 25.0 mg/kg/injection, schedule: Q07DX005 (ip), vehicle: saline with Tween-80.
The mark [3] stands for this setting: endpoint: median tumor weight (est.), dose: 50.0 mg/kg/injection, schedule: Q07DX005 (ip), vehicle: saline with Tween-80.
Setting [4] is: endpoint: median tumor weight change, dose: 125.0 mg/kg/injection, schedule: Q01DX001 (ip), vehicle: Klucel (hydroxypropylcellulose) (HPC).
Where [5] appears, read: endpoint: median tumor weight change, dose: 250.0 mg/kg/injection, schedule: Q01DX001 (ip), vehicle: Klucel (hydroxypropylcellulose) (HPC).
[6] abbreviates: endpoint: median tumor weight change, dose: 250.0 mg/kg/injection, schedule: Q01DX001 (ip), vehicle: saline with Tween-80.
Setting [7] is: endpoint: median tumor weight change, dose: 500.0 mg/kg/injection, schedule: Q01DX001 (ip), vehicle: saline with Tween-80.
[8] abbreviates: endpoint: median tumor weight change, dose: 1000.0 mg/kg/injection, schedule: Q01DX001 (ip), vehicle: saline with Tween-80.

Several values for one entry are separate records, joined by “and”; a condition that tells them apart may be missing. Identical values can stand only once. Results filed as inconclusive are left out.

For `COC1CC(CC2CCC(C)C(C(C)C(=O)O)O2)OC2(OC(C)(C3CCC(C)(C4OC(C5OC(O)(CO)C(C)CC5C)CC4C)O3)CC2C)C1C` (stereo not given), the T/C reads like this: (endpoint: median tumor weight (est.), dose: 0.31 mg/kg/injection, schedule: Q07DX005 (ip), vehicle: Klucel (hydroxypropylcellulose) (HPC)) 112 % of control; (endpoint: median tumor weight (est.), dose: 0.63 mg/kg/injection, schedule: Q07DX005 (ip), vehicle: Klucel (hydroxypropylcellulose) (HPC)) 398 % of control; (endpoint: median tumor weight (est.), dose: 1.25 mg/kg/injection, schedule: Q07DX005 (ip), vehicle: Klucel (hydroxypropylcellulose) (HPC)) 390 % of control; (endpoint: median tumor weight (est.), dose: 2.5 mg/kg/injection, schedule: Q07DX005 (ip), vehicle: Klucel (hydroxypropylcellulose) (HPC)) 47 % of control; (endpoint: median tumor weight (est.), dose: 5.0 mg/kg/injection, schedule: Q07DX005 (ip), vehicle: Klucel (hydroxypropylcellulose) (HPC)) 380 % of control; (endpoint: median tumor weight (est.), dose: 10.0 mg/kg/injection, schedule: Q07DX005 (ip), vehicle: Klucel (hydroxypropylcellulose) (HPC)) 323 % of control.

On to `Cc1c2cc(Cl)c3ccccc3c2c[n+]2ccccc12`, for which the T/C by setting is: under setting [1], 52 % of control; under setting [2], 52 % of control and 57 % of control; under setting [3], 61 % of control and 65 % of control.

As for `CCN(C)N=Nc1ccc(C(N)=O)cc1`, the T/C (endpoint: median tumor weight change, dose: 50.0 mg/kg/injection, schedule: Q01DX001 (ip), vehicle: Klucel (hydroxypropylcellulose) (HPC)) was 51 % of control; the T/C (endpoint: median tumor weight change, dose: 62.5 mg/kg/injection, schedule: Q01DX001 (ip), vehicle: Klucel (hydroxypropylcellulose) (HPC)) was 92 % of control; the T/C (endpoint: median tumor weight change, dose: 100.0 mg/kg/injection, schedule: Q01DX001 (ip), vehicle: Klucel (hydroxypropylcellulose) (HPC)) was 72 % of control; the T/C under setting [4] is 91 % of control; the T/C (endpoint: median tumor weight change, dose: 200.0 mg/kg/injection, schedule: Q01DX001 (ip), vehicle: Klucel (hydroxypropylcellulose) (HPC)) is 44 % of control; the T/C under setting [5] is 24 % of control. Besides, the T/C (endpoint: median tumor weight change, dose: 400.0 mg/kg/injection, schedule: Q01DX001 (ip), vehicle: Klucel (hydroxypropylcellulose) (HPC)) is 21 % of control.

For the compound `COc1cc([C@@H]2c3cc4c(c(O)c3C[C@H]3COC(=O)[C@@H]32)OCO4)cc(OC)c1O`, the T/C runs as follows: (endpoint: median tumor weight (est.), dose: 0.5 mg/kg/injection, schedule: Q07DX005 (ip), vehicle: saline) 275 % of control; (endpoint: median tumor weight (est.), dose: 1.0 mg/kg/injection, schedule: Q07DX005 (ip), vehicle: saline) 85 % of control; (endpoint: median tumor weight (est.), dose: 2.0 mg/kg/injection, schedule: Q07DX005 (ip), vehicle: saline) 56 % of control; (endpoint: median tumor weight (est.), dose: 4.0 mg/kg/injection, schedule: Q07DX005 (ip), vehicle: saline) 26 % of control; (endpoint: median tumor weight (est.), dose: 8.0 mg/kg/injection, schedule: Q07DX005 (ip), vehicle: saline) 27 % of control.

Turning to `Cc1ccc(NC(=O)Oc2ccc(Br)cc2Br)c([N+](=O)[O-])c1`, the T/C was 121 % of control under setting [1]; 93 % of control under setting [2]; 115 % of control under setting [3]; 77 % of control (endpoint: median tumor weight (est.), dose: 100.0 mg/kg/injection, schedule: Q07DX005 (ip), vehicle: saline with Tween-80); 124 % of control (endpoint: median tumor weight (est.), dose: 200.0 mg/kg/injection, schedule: Q07DX005 (ip), vehicle: saline with Tween-80); 98 % of control (endpoint: median tumor weight (est.), dose: 400.0 mg/kg/injection, schedule: Q07DX005 (ip), vehicle: saline with Tween-80). In addition, the T/C reads like this: under setting [6], 52 % of control; under setting [7], 88 % of control; under setting [8], 50 % of control; (endpoint: median tumor weight change, dose: 1800.0 mg/kg/injection, schedule: Q01DX001 (ip), vehicle: saline with Tween-80) 74 % of control; (endpoint: median tumor weight change, dose: 2000.0 mg/kg/injection, schedule: Q01DX001 (ip), vehicle: saline with Tween-80) 59 % of control; (endpoint: median tumor weight change, dose: 3600.0 mg/kg/injection, schedule: Q01DX001 (ip), vehicle: saline with Tween-80) 44 % of control.

In the case of `COc1ccc2c(c1)CCn1c(C)c(COC(=O)NC(C)C)c(COC(=O)NC(C)C)c1-2`, the T/C runs as follows: (endpoint: median tumor weight change, dose: 15.62 mg/kg/injection, schedule: Q01DX001 (ip), vehicle: distilled water + Tween-80) 107 % of control; (endpoint: median tumor weight change, dose: 31.0 mg/kg/injection, schedule: Q01DX001 (ip), vehicle: distilled water + Tween-80) 106 % of control; (endpoint: median tumor weight change, dose: 31.25 mg/kg/injection, schedule: Q01DX001 (ip), vehicle: distilled water + Tween-80) 109 % of control and 114 % of control; (endpoint: median tumor weight change, dose: 62.0 mg/kg/injection, schedule: Q01DX001 (ip), vehicle: distilled water + Tween-80) 58 % of control; (endpoint: median tumor weight change, dose: 250.0 mg/kg/injection, schedule: Q01DX001 (ip), vehicle: distilled water + Tween-80) 26 % of control.

For the compound `c1cc(OCC2CO2)ccc1OCC1CO1` (stereo not given), the T/C runs as follows: under setting [4], 92 % of control; under setting [5], 113 % of control.

For `C=C(C)[C@]12CC(C)C34OC(/C=C\C=C\CCCCCCCCC)(O[C@@H]1[C@@H]3[C@@H]1O[C@]1(CO)[C@@H](O)[C@]1(O)C(=O)C(C)=C[C@@H]41)O2` (stereo not given in full), the T/C is, setting by setting: (endpoint: median tumor weight (est.), dose: 0.37 mg/kg/injection, schedule: Q07DX002 (ip), vehicle: saline + alcohol) 110 % of control; (endpoint: median tumor weight (est.), dose: 0.37 mg/kg/injection, schedule: Q07DX005 (ip), vehicle: saline + alcohol) 82 % of control; (endpoint: median tumor weight (est.), dose: 0.75 mg/kg/injection, schedule: Q07DX002 (ip), vehicle: saline + alcohol) 121 % of control; (endpoint: median tumor weight (est.), dose: 0.75 mg/kg/injection, schedule: Q07DX005 (ip), vehicle: saline + alcohol) 116 % of control; (endpoint: median tumor weight (est.), dose: 1.5 mg/kg/injection, schedule: Q07DX002 (ip), vehicle: saline + alcohol) 201 % of control; (endpoint: median tumor weight (est.), dose: 1.5 mg/kg/injection, schedule: Q07DX005 (ip), vehicle: saline + alcohol) 72 % of control.

As for `CCCCn1cnc2c(=S)nc[nH]c21`, the T/C is 60 % of control under setting [6], 2 % of control under setting [7] and 8 % of control under setting [8].

As to `O=C1C(NCCO)=C(N2CC2)C(=O)C(NCCO)=C1N1CC1`, the T/C was 73 % of control (endpoint: median tumor weight change, dose: 0.62 mg/kg/injection, schedule: Q01DX001 (ip), vehicle: saline); 36 % of control (endpoint: median tumor weight change, dose: 0.63 mg/kg/injection, schedule: Q01DX001 (ip), vehicle: saline); 25 % of control (endpoint: median tumor weight change, dose: 5.0 mg/kg/injection, schedule: Q01DX001 (ip), vehicle: saline).

In the case of `CC(=O)C1=C(O)C2(O)C(=O)c3c(c(C)c4ccc(C)c(O)c4c3O)CC2C(N)C1=O` (stereo not given), the T/C by setting is: (endpoint: median tumor weight change, dose: 37.5 mg/kg/injection, schedule: Q01DX001 (ip), vehicle: saline + alcohol) 72 % of control; (endpoint: median tumor weight change, dose: 38.0 mg/kg/injection, schedule: Q01DX001 (ip), vehicle: saline + alcohol) 100 % of control; (endpoint: median tumor weight change, dose: 75.0 mg/kg/injection, schedule: Q01DX001 (ip), vehicle: saline + alcohol) 46 % of control and 60 % of control; (endpoint: median tumor weight change, dose: 150.0 mg/kg/injection, schedule: Q01DX001 (ip), vehicle: saline + alcohol) 49 % of control.

In the case of `COc1cc(C)c2c(c1C=O)Oc1c(c(C)c(O)c3c1C(O)OC3=O)OC2=O` (stereo not given), the T/C by setting is: (endpoint: mean tumor weight, dose: 3.12 mg/kg/injection, schedule: Q07DX005 (ip), vehicle: saline) 42 % of control; (endpoint: mean tumor weight, dose: 6.25 mg/kg/injection, schedule: Q07DX005 (ip), vehicle: saline) 49 % of control; (endpoint: mean tumor weight, dose: 25.0 mg/kg/injection, schedule: Q07DX005 (ip), vehicle: saline) 168 % of control; (endpoint: mean tumor weight, dose: 50.0 mg/kg/injection, schedule: Q07DX005 (ip), vehicle: saline) 61 % of control; (endpoint: median tumor weight (est.), dose: 3.12 mg/kg/injection, schedule: Q07DX005 (ip), vehicle: saline) 97 % of control; (endpoint: median tumor weight (est.), dose: 3.12 mg/kg/injection, schedule: Q07DX005 (ip), vehicle: suspension in saline) 89 % of control. Further, the T/C was 114 % of control (endpoint: median tumor weight (est.), dose: 6.25 mg/kg/injection, schedule: Q07DX005 (ip), vehicle: saline); 104 % of control (endpoint: median tumor weight (est.), dose: 6.25 mg/kg/injection, schedule: Q07DX005 (ip), vehicle: suspension in saline); 94 % of control (endpoint: median tumor weight (est.), dose: 12.5 mg/kg/injection, schedule: Q07DX005 (ip), vehicle: suspension in saline); 75 % of control (endpoint: median tumor weight (est.), dose: 25.0 mg/kg/injection, schedule: Q07DX005 (ip), vehicle: saline); 96 % of control (endpoint: median tumor weight (est.), dose: 25.0 mg/kg/injection, schedule: Q07DX005 (ip), vehicle: suspension in saline); 96 % of control (endpoint: median tumor weight (est.), dose: 50.0 mg/kg/injection, schedule: Q07DX005 (ip), vehicle: saline). In addition, the T/C by setting is: (endpoint: median tumor weight (est.), dose: 50.0 mg/kg/injection, schedule: Q07DX005 (ip), vehicle: suspension in saline) 88 % of control; (endpoint: median tumor weight (est.), dose: 100.0 mg/kg/injection, schedule: Q07DX005 (ip), vehicle: suspension in saline) 90 % of control.
